ChEMBL document CHEMBL1201862, “PubChem BioAssay data set” (2004)
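96-well plates; 48 h exposure; 5 concentrations. Endpoints by linear interpolation between flanking doses. Not reached: highest tested concentration assigned. The concentration for 50% growth inhibition is given as GI50.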 Active and inactive are the calls of the source. Cut-off read from the data, not from the text of the source: active = GI50 up to about 1.1 µM and inactive = higher.

Experiments:
Assay in all cases: NCI tumour cell line growth inhibition, 48 h
786-0 = tested on: 786-0
A498 = tested on: A498
A549 = tested on: A549
ACHN = tested on: ACHN
CCRF-CEM = tested on: CCRF-CEM
COLO 205 = tested on: COLO 205
DLD-1 = tested on: DLD-1
DMS-114 = tested on: DMS-114
DMS-273 = tested on: DMS-273
EKVX = tested on: EKVX
HCC 2998 = tested on: HCC 2998
HCT-116 = tested on: HCT-116
HCT-15 = tested on: HCT-15
HL-60 = tested on: HL-60
HOP-62 = tested on: HOP-62
HT-29 = tested on: HT-29
IGROV-1 = tested on: IGROV-1
K562 = tested on: K562
KM-20L2 = tested on: KM-20L2
LOX IMVI = tested on: LOX IMVI
LXFL 529 = tested on: LXFL 529
M14 = tested on: M14
M19-MEL = tested on: M19-MEL
MOLT-4 = tested on: MOLT-4
Malme-3M = tested on: Malme-3M
NCI-H226 = tested on: NCI-H226
NCI-H23 = tested on: NCI-H23
NCI-H460 = tested on: NCI-H460
OVCAR-3 = tested on: OVCAR-3
OVCAR-4 = tested on: OVCAR-4
OVCAR-8 = tested on: OVCAR-8
RPMI-8226 = tested on: RPMI-8226
RXF 393 = tested on: RXF 393
RXF 631 = tested on: RXF 631
SF-268 = tested on: SF-268
SF-295 = tested on: SF-295
SF-539 = tested on: SF-539
SK-MEL-28 = tested on: SK-MEL-28
SK-MEL-2 = tested on: SK-MEL-2
SK-MEL-5 = tested on: SK-MEL-5
SN12C = tested on: SN12C
SNB-19 = tested on: SNB-19
SNB-75 = tested on: SNB-75
SR = tested on: SR
SW-620 = tested on: SW-620
TK-10 = tested on: TK-10
U-251 = tested on: U-251
UACC-257 = tested on: UACC-257
UACC-62 = tested on: UACC-62
UO-31 = tested on: UO-31
CAKI-1 = tested on: CAKI-1
HOP-18 = tested on: HOP-18
HOP-92 = tested on: HOP-92
KM12 = tested on: KM12
NCI-H522 = tested on: NCI-H522
OVCAR-5 = tested on: OVCAR-5
SK-OV-3 = tested on: SK-OV-3
SNB-78 = tested on: SNB-78
XF498 = tested on: XF498

Measured: GI50

CCOC(=O)C(C)(C)Oc1ccc2c(-c3ccc(Cl)cc3)c(-c3ccc(Cl)cc3)c(=O)oc2c1
> 100 µM: HCT-15
inactive: 786-0 > 100 µM | A498 > 100 µM | A549 > 100 µM | ACHN > 100 µM | CCRF-CEM > 100 µM | COLO 205 > 100 µM | DLD-1 > 100 µM | DMS-114 > 100 µM | DMS-273 > 100 µM | EKVX > 100 µM | HCC 2998 > 100 µM | HCT-116 89.5 µM | HL-60 68.7 µM | HOP-62 > 100 µM | HT-29 > 100 µM | IGROV-1 > 100 µM | K562 > 100 µM | KM-20L2 > 100 µM | LOX IMVI > 100 µM | LXFL 529 > 100 µM | M14 > 100 µM | M19-MEL > 100 µM | MOLT-4 > 100 µM | Malme-3M > 100 µM | NCI-H226 62.2 µM | NCI-H23 > 100 µM | NCI-H460 > 100 µM | OVCAR-3 > 100 µM | OVCAR-4 > 100 µM | OVCAR-8 > 100 µM | RPMI-8226 80 µM | RXF 393 93.8 µM | RXF 631 > 100 µM | SF-268 > 100 µM | SF-295 > 100 µM | SF-539 > 100 µM | SK-MEL-28 > 100 µM | SK-MEL-2 > 100 µM | SK-MEL-5 98.2 µM | SN12C > 100 µM | SNB-19 > 100 µM | SNB-75 > 100 µM | SR > 100 µM | SW-620 > 100 µM | TK-10 > 100 µM | U-251 > 100 µM | UACC-257 > 100 µM | UACC-62 > 100 µM | UO-31 > 100 µM

Cc1cc(C)n2c(-c3ccccc3)c(C)cc2n1
16.7 µM: HCT-15
inactive: 786-0 78 µM | A498 35.2 µM | A549 75.5 µM | ACHN 95.7 µM | CAKI-1 30.9 µM | COLO 205 43.5 µM | DLD-1 42.3 µM | DMS-114 23.8 µM | DMS-273 27.5 µM | EKVX 64 µM | HCC 2998 34.8 µM | HCT-116 67.8 µM | HL-60 5.68 µM | HOP-18 > 100 µM | HOP-62 53.7 µM | HOP-92 53.2 µM | HT-29 25.8 µM | IGROV-1 66.2 µM | K562 8.17 µM | KM-20L2 29 µM | KM12 60.8 µM | LOX IMVI 65 µM | M14 43.5 µM | M19-MEL 30.2 µM | Malme-3M 49.4 µM | NCI-H226 36.2 µM | NCI-H23 41.1 µM | NCI-H460 37.3 µM | NCI-H522 21.2 µM | OVCAR-3 25.6 µM | OVCAR-4 73.3 µM | OVCAR-5 > 100 µM | OVCAR-8 49.1 µM | RXF 393 39.4 µM | RXF 631 43.6 µM | SF-268 > 100 µM | SF-295 48 µM | SF-539 24.3 µM | SK-MEL-28 > 100 µM | SK-MEL-2 15.3 µM | SK-MEL-5 26.9 µM | SK-OV-3 60.3 µM | SN12C 50.5 µM | SNB-19 52.2 µM | SNB-75 23.1 µM | SNB-78 94.6 µM | SW-620 34 µM | TK-10 > 100 µM | U-251 34 µM | UACC-257 > 100 µM | UACC-62 28.2 µM | UO-31 34.9 µM
active: CCRF-CEM 1.09 µM

CCC(=O)C(C(=O)CC)c1c(OC(=O)c2ccccc2)ccc(O)c1C(=O)OC
inactive: 786-0 > 100 µM | A498 > 100 µM | A549 > 100 µM | ACHN > 100 µM | CAKI-1 > 100 µM | CCRF-CEM > 100 µM | COLO 205 > 100 µM | DMS-273 > 100 µM | EKVX > 100 µM | HCT-116 > 100 µM | HL-60 > 100 µM | HOP-62 > 100 µM | HOP-92 > 100 µM | HT-29 > 100 µM | IGROV-1 > 100 µM | K562 > 100 µM | KM-20L2 > 100 µM | KM12 > 100 µM | LOX IMVI > 100 µM | LXFL 529 > 100 µM | M14 > 100 µM | M19-MEL > 100 µM | MOLT-4 72.3 µM | NCI-H226 > 100 µM | NCI-H23 > 100 µM | NCI-H460 > 100 µM | NCI-H522 > 100 µM | OVCAR-3 > 100 µM | OVCAR-4 > 100 µM | OVCAR-5 > 100 µM | OVCAR-8 > 100 µM | RPMI-8226 > 100 µM | RXF 393 > 100 µM | RXF 631 > 100 µM | SF-268 > 100 µM | SF-295 > 100 µM | SF-539 > 100 µM | SK-MEL-28 > 100 µM | SK-MEL-2 > 100 µM | SK-MEL-5 > 100 µM | SK-OV-3 > 100 µM | SN12C > 100 µM | SNB-19 > 100 µM | SNB-75 90.8 µM | SNB-78 > 100 µM | SR 89.9 µM | SW-620 > 100 µM | TK-10 > 100 µM | U-251 > 100 µM | UACC-257 > 100 µM | UACC-62 > 100 µM | UO-31 > 100 µM | XF498 > 100 µM
> 100 µM: HCT-15

Cc1ccc(S(=O)(=O)OC(C=O)C(O)C(O)COC(c2ccccc2)(c2ccccc2)c2ccccc2)cc1 (configuration not stated)
active: RXF 631 0.46 µM
14.1 µM: HCT-15
inactive: 786-0 14.1 µM | A498 18 µM | A549 18.2 µM | ACHN 15.3 µM | CAKI-1 19.8 µM | DMS-114 17.6 µM | DMS-273 21.9 µM | EKVX 13.9 µM | HCC 2998 12 µM | HCT-116 16.4 µM | HOP-62 16.9 µM | HT-29 12.2 µM | IGROV-1 15.1 µM | K562 16.9 µM | KM-20L2 14.1 µM | KM12 11.9 µM | LOX IMVI 19.1 µM | LXFL 529 12.8 µM | M14 16.1 µM | M19-MEL 13.1 µM | MOLT-4 6.08 µM | Malme-3M 19 µM | NCI-H226 14.9 µM | NCI-H460 14 µM | NCI-H522 13.1 µM | OVCAR-3 14.9 µM | OVCAR-4 18.2 µM | OVCAR-5 20.1 µM | OVCAR-8 13.6 µM | RPMI-8226 12.2 µM | RXF 393 15.2 µM | SF-268 19.6 µM | SF-295 12.2 µM | SF-539 16.3 µM | SK-MEL-28 20.6 µM | SK-MEL-2 16.2 µM | SK-MEL-5 15.4 µM | SK-OV-3 15 µM | SN12C 15.5 µM | SNB-19 14.8 µM | SNB-75 14.9 µM | SR 5.43 µM | SW-620 16.4 µM | U-251 14.4 µM | UACC-257 13.2 µM | UACC-62 15.2 µM | UO-31 16.8 µM | XF498 15.8 µM

COc1ccc(-c2cc(=O)c3c(O)cccc3o2)c(OC)c1OC
inactive: 786-0 > 100 µM | A498 33 µM | A549 26.6 µM | ACHN 61 µM | CAKI-1 97.3 µM | CCRF-CEM > 100 µM | COLO 205 > 100 µM | DLD-1 > 100 µM | DMS-114 18.6 µM | DMS-273 13.7 µM | HCC 2998 > 100 µM | HCT-116 38.7 µM | HL-60 10.1 µM | HOP-62 10.3 µM | HOP-92 19.9 µM | HT-29 > 100 µM | IGROV-1 > 100 µM | K562 6.59 µM | KM-20L2 > 100 µM | KM12 40.6 µM | LOX IMVI 55.2 µM | LXFL 529 99.5 µM | M14 > 100 µM | M19-MEL > 100 µM | MOLT-4 12.9 µM | Malme-3M > 100 µM | NCI-H226 > 100 µM | NCI-H23 > 100 µM | NCI-H460 80 µM | NCI-H522 > 100 µM | OVCAR-3 > 100 µM | OVCAR-4 74.5 µM | OVCAR-5 6.67 µM | OVCAR-8 > 100 µM | RPMI-8226 > 100 µM | RXF 393 20.2 µM | RXF 631 66.8 µM | SF-268 > 100 µM | SF-295 43.2 µM | SF-539 20.6 µM | SK-MEL-28 > 100 µM | SK-MEL-2 20.2 µM | SK-MEL-5 24.7 µM | SK-OV-3 > 100 µM | SN12C 76.9 µM | SNB-75 11.9 µM | SNB-78 51.4 µM | SW-620 22.4 µM | TK-10 47.1 µM | U-251 16.1 µM | UACC-257 > 100 µM | UACC-62 > 100 µM | XF498 65.6 µM
10.1 µM: HCT-15
